In patent publication US20230141101A1, “PDE4 INHIBITOR COMPOUND AND MEDICAL USE THEREOF” (Suzhou Longbotai Pharmaceuticals Co., Ltd., priority 2020, published 2023):

Experiments:
Type in all cases: biochemical
PDE4A1A = target: T1, PDE4A1A (Homo sapiens, UniProt P27815); test: PDE4 inhibitory activity assay (FAM-cAMP enzymatic reaction), PDE4A1A; conditions: for inhibitory activity against PDE4A1A compared with Apremilast and WX011: compared with Apremilast and Example 11 of WO2018036470 (WX011)
T1 construct: purchased BPS 60040
Method: (§1) The compounds of the present disclosure were tested for their inhibitory activity (IC50 value) against PDE4A1A, PDE4B1, and PDE4D2.
(§2) Positive compound: Trequinsin (Sigma, Cat No. T20S7).
(§3) Instrument: Wallac Victor Muti-lable counter (Pekin Elmer) Steps of assay:
(§4) PDE enzymatic reaction; • 1) PDE was dissolved in 1× reaction solution to prepare 2× enzyme solution; • 2) FAM-cAMP was dissolved in 1× reaction solution to prepare 2× substrate solution; • 3) Corresponding volume of the compound in DMSO was transferred to the reaction plate through Echo 550; • 4) 2× enzyme solution was added into the corresponding wells of the reaction plate and incubated with the compound solution for 15 minutes at room temperature; • 5) 2× substrate solution was added into the corresponding well of the reaction plate to initiate the reaction; • 6) After the reaction plate was incubated at room temperature for 30 min, the reaction was terminated by adding reaction stopping solution. The reaction plate was incubated at room temperature for another 60 minutes;
(§5) Inhibition rates were calculated with Excel; and IC50 for each compound was calculated with Graphpad prism.

PDE4D2 = PDE4D2 (Homo sapiens, UniProt Q08499); test: PDE4 inhibitory activity assay (FAM-cAMP enzymatic reaction), PDE4D2; conditions: for inhibitory activity against PDE4D2 compared with Apremilast and WX011: compared with Apremilast and Example 11 of WO2018036470 (WX011); for IC50: read-out: PDE4 D2 inhibitory activity (IC50 value)
Method: as §1, §2, §3, §4, §5

PDE4B1 = target: T2, PDE4B1 (Homo sapiens, UniProt Q07343); test: PDE4 inhibitory activity assay (FAM-cAMP enzymatic reaction), PDE4B1; conditions: for inhibitory activity against PDE4B1 compared with Apremilast and WX011: compared with Apremilast and Example 11 of WO2018036470 (WX011)
T2 construct: purchased BPS 60041
Method: as §1, §2, §3, §4, §5

T1 sequence (P27815 1-647 isoform P27815-4): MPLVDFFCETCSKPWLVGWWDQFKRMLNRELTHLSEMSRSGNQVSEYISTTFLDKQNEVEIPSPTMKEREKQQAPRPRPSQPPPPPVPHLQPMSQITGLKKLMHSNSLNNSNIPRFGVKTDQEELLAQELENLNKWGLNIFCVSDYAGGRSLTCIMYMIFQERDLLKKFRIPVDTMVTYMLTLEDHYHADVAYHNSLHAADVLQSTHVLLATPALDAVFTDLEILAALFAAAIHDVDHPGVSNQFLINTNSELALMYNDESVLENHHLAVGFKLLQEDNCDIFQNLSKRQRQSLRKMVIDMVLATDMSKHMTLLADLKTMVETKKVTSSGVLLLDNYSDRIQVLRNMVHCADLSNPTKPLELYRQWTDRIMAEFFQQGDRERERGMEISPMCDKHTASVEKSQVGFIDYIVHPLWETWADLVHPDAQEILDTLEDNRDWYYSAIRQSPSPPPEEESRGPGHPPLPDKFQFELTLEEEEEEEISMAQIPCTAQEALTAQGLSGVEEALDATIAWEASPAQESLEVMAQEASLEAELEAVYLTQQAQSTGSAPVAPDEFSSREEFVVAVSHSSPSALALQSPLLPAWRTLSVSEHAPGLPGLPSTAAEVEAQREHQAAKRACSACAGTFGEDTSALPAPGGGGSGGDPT
T2 sequence (Q07343 whole entry): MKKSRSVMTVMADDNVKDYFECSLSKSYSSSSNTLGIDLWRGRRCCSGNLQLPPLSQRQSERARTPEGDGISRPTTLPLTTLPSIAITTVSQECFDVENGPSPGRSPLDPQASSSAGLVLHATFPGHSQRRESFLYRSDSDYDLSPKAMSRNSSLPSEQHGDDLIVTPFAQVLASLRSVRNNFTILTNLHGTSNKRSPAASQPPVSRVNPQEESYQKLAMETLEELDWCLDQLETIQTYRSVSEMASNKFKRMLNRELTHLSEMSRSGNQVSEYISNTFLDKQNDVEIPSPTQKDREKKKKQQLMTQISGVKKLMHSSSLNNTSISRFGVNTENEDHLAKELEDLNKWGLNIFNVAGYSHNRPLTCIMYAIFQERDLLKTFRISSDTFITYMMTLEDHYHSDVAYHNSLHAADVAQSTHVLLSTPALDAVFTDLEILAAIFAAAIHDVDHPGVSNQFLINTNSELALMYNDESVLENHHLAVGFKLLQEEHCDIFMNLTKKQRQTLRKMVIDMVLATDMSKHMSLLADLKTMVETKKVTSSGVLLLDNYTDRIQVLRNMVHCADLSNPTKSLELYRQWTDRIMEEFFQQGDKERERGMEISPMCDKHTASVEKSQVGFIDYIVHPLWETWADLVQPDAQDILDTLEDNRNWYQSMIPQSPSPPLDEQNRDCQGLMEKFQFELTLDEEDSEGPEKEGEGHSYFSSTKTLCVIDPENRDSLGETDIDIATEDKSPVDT
Chain of PDE4D2 (Q08499 303-809): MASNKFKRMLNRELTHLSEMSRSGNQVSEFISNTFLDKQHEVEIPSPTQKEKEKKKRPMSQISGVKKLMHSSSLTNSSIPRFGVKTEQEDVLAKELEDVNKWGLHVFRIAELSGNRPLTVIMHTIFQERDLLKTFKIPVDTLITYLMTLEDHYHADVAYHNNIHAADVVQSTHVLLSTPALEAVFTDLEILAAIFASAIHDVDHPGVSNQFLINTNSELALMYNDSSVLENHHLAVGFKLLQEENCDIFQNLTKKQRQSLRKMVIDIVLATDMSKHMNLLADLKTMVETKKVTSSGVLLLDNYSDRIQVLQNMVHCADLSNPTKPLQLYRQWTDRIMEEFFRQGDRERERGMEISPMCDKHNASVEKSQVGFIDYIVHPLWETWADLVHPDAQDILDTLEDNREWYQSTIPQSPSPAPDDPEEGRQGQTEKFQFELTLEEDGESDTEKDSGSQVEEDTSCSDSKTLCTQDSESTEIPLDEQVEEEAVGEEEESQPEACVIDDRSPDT

Structure (SMILES): CCOc1nc([C@@H](CS(C)(=O)=O)n2c(=O)[nH]c3c(C)c(-c4ccccc4F)cnc32)ccc1OC [Ex. 2, (S)-3-(1-(6-ethoxy-5-methoxypyridin-2-yl)-2-(methylsulfonyl)ethyl)-6-(2-fluorophenyl)-7-methyl-1H-imidazo[4,5-b]pyridin-2(3H)-one]
- inhibitory activity against PDE4A1A compared with Apremilast and WX011 (PDE4A1A): significantly enhanced inhibitory activity
- inhibitory activity against PDE4D2 compared with Apremilast and WX011 (PDE4D2): significantly enhanced inhibitory activity
- IC50 (PDE4D2): 3.4 nM

Structure (SMILES): CCOc1nc([C@H](CS(C)(=O)=O)n2c(=O)[nH]c3c(C)c(-c4ccccc4F)cnc32)ccc1OC [Ex. 3, (R)-3-(1-(6-ethoxy-5-methoxypyridin-2-yl)-2-(methylsulfonyl)ethyl)-6-(2-fluorophenyl)-7-methyl-1H-imidazo[4,5-b]pyridin-2(3H)-one]
- IC50 (PDE4D2): 415 nM

Structure (SMILES): CCOc1nc([C@@H](CS(C)(=O)=O)n2c(=O)[nH]c3c(C)c(-c4ccccc4)cnc32)ccc1OC [Ex. 4, (S)-3-(1-(6-ethoxy-5-methoxypyridin-2-yl)-2-(methylsulfonyl)ethyl)-7-methyl-6-phenyl-1H-imidazo[4,5-b]pyridin-2(3H)-one]
- IC50 (PDE4D2): 8.5 nM

Structure (SMILES): CCOc1nc([C@H](CS(C)(=O)=O)n2c(=O)[nH]c3c(C)c(-c4ccccc4)cnc32)ccc1OC [Ex. 5, (R)-3-(1-(6-ethoxy-5-methoxypyridin-2-yl)-2-(methylsulfonyl)ethyl)-7-methyl-6-phenyl-1H-imidazo[4,5-b]pyridin-2(3H)-one]
- PDE4 A1 inhibitory effect at 20 nM (PDE4A1A): −
- PDE4 D2 inhibitory effect at 20 nM (PDE4D2): −
- PDE4 B1 inhibitory effect at 20 nM (PDE4B1): −

Structure (SMILES): CCOc1nc([C@@H](CS(C)(=O)=O)n2c(=O)[nH]c3c(C)c(-c4ccc(F)cc4)cnc32)ccc1OC [Ex. 6, (S)-3-(1-(6-ethoxy-5-methoxypyridin-2-yl)-2-(methylsulfonyl)ethyl)-6-(4-fluorophenyl)-7-methyl-1H-imidazo[4,5-b]pyridin-2(3H)-one]
- PDE4 A1 inhibitory effect at 20 nM (PDE4A1A): +
- PDE4 D2 inhibitory effect at 20 nM (PDE4D2): =
- PDE4 B1 inhibitory effect at 20 nM (PDE4B1): +

Structure (SMILES): CCOc1nc([C@H](CS(C)(=O)=O)n2c(=O)[nH]c3c(C)c(-c4ccc(F)cc4)cnc32)ccc1OC [Ex. 7, (R)-3-(1-(6-ethoxy-5-methoxypyridin-2-yl)-2-(methylsulfonyl)ethyl)-6-(4-fluorophenyl)-7-methyl-1H-imidazo[4,5-b]pyridin-2(3H)-one]
- PDE4 A1 inhibitory effect at 20 nM (PDE4A1A): −
- PDE4 D2 inhibitory effect at 20 nM (PDE4D2): −
- PDE4 B1 inhibitory effect at 20 nM (PDE4B1): −

Structure (SMILES): CCOc1nc([C@@H](CS(C)(=O)=O)n2c(=O)[nH]c3c(C)c(-c4ccccc4C)cnc32)ccc1OC [Ex. 8, (S)-3-(1-(6-ethoxy-5-methoxypyridin-2-yl)-2-(methylsulfonyl)ethyl)-7-methyl-6-(o-methylphenyl)-1H-imidazo[4,5-b]pyridin-2(3H)-one]
- inhibitory activity against PDE4A1A compared with Apremilast and WX011 (PDE4A1A): significantly enhanced inhibitory activity
- inhibitory activity against PDE4D2 compared with Apremilast and WX011 (PDE4D2): significantly enhanced inhibitory activity
- IC50 (PDE4D2): 3.8 nM
- inhibitory activity against PDE4B1 compared with Apremilast and WX011 (PDE4B1): significantly enhanced inhibitory activity

Structure (SMILES): CCOc1nc([C@H](CS(C)(=O)=O)n2c(=O)[nH]c3c(C)c(-c4ccccc4C)cnc32)ccc1OC [Ex. 9, (R)-3-(1-(6-ethoxy-5-methoxypyridin-2-yl)-2-(methylsulfonyl)ethyl)-7-methyl-6-(o-methylphenyl)-1H-imidazo[4,5b]pyridin-2(3H)-one]
- IC50 (PDE4D2): 318 nM

Structure (SMILES): CCOc1nc([C@@H](CS(C)(=O)=O)n2c(=O)[nH]c3c(C)c(-c4ccccc4CC)cnc32)ccc1OC [Ex. 10, (S)-3-(1-(6-ethoxy-5-methoxypyridin-2-yl)-2-(methylsulfonyl)ethyl)-6-(2-ethylphenyl)-7-methyl-1H-imidazo[4,5-b]pyridin-2(3H)-one]
- inhibitory activity against PDE4A1A compared with Apremilast and WX011 (PDE4A1A): significantly enhanced inhibitory activity
- inhibitory activity against PDE4D2 compared with Apremilast and WX011 (PDE4D2): significantly enhanced inhibitory activity
- IC50 (PDE4D2): 2.8 nM
- inhibitory activity against PDE4B1 compared with Apremilast and WX011 (PDE4B1): significantly enhanced inhibitory activity

Structure (SMILES): CCOc1nc([C@@H](CS(C)(=O)=O)n2c(=O)[nH]c3c(C)c(-c4ccccc4C(C)C)cnc32)ccc1OC [Ex. 11, (S)-3-(1-(6-ethoxy-5-methoxypyridin-2-yl)-2-(methylsulfonyl)ethyl)-6-(2-isopropylphenyl)-7-methyl-1H-imidazo[4,5-b]pyridin-2(3H)-one]
- PDE4 A1 inhibitory effect at 20 nM (PDE4A1A): +
- PDE4 D2 inhibitory effect at 20 nM (PDE4D2): +
- PDE4 B1 inhibitory effect at 20 nM (PDE4B1): +

Structure (SMILES): CCOc1nc([C@@H](CS(C)(=O)=O)n2c(=O)[nH]c3c(C)c(-c4ccccc4OC)cnc32)ccc1OC [Ex. 12, (S)-3-(1-(6-ethoxy-5-methoxypyridin-2-yl)-2-(methylsulfonyl)ethyl)-6-(2-methoxyphenyl)-7-methyl-1H-imidazo[4,5-b]pyridin-2(3H)-one]
- inhibitory activity against PDE4A1A compared with Apremilast and WX011 (PDE4A1A): significantly enhanced inhibitory activity
- inhibitory activity against PDE4D2 compared with Apremilast and WX011 (PDE4D2): significantly enhanced inhibitory activity
- IC50 (PDE4D2): 3.2 nM
- inhibitory activity against PDE4B1 compared with Apremilast and WX011 (PDE4B1): significantly enhanced inhibitory activity

Structure (SMILES): CCOc1nc([C@H](CS(C)(=O)=O)n2c(=O)[nH]c3c(C)c(-c4ccccc4OC)cnc32)ccc1OC [Ex. 13, (R)-3-(1-(6-ethoxy-5-methoxypyridin-2-yl)-2-(methylsulfonyl)ethyl)-6-(2-methoxyphenyl)-7-methyl-1H-imidazo[4,5-b]pyridin-2(3H)-one]
- IC50 (PDE4D2): 396 nM

Structure (SMILES): CCOc1nc([C@@H](CS(C)(=O)=O)n2c(=O)[nH]c3c(C)c(-c4ccccc4C(F)(F)F)cnc32)ccc1OC [Ex. 14, (S)-3-(1-(6-ethoxy-5-methoxypyridin-2-yl)-2-(methylsulfonyl)ethyl)-7-methyl-6-(2-(trifluoromethyl)phenyl)-1H-imidazo[4,5-b]pyridin-2(3H)-one]
- PDE4 A1 inhibitory effect at 20 nM (PDE4A1A): +
- PDE4 D2 inhibitory effect at 20 nM (PDE4D2): =
- PDE4 B1 inhibitory effect at 20 nM (PDE4B1): +

Structure (SMILES): CCOc1nc([C@@H](CS(C)(=O)=O)n2c(=O)[nH]c3c(C)c(-c4ccccc4C#N)cnc32)ccc1OC [Ex. 15, (S)-2-(3-(1-(6-ethoxy-5-methoxypyridin-2-yl)-2-(methylsulfonyl)ethyl)-7-methyl-2-oxo-2,3-dihydro-1H-imidazo[4,5-b]pyridin-6-yl)benzonitrile]
- PDE4 A1 inhibitory effect at 20 nM (PDE4A1A): −
- PDE4 D2 inhibitory effect at 20 nM (PDE4D2): −
- PDE4 B1 inhibitory effect at 20 nM (PDE4B1): −

Structure (SMILES): CCOc1nc([C@H](CS(C)(=O)=O)n2c(=O)[nH]c3c(C)c(-c4ccccc4C#N)cnc32)ccc1OC [Ex. 16, (R)-2-(3-(1-(6-ethoxy-5-methoxypyridin-2-yl)-2-(methylsulfonyl)ethyl)-7-methyl-2-oxo-2,3-dihydro-1H-imidazo[4,5-b]pyridin-6-yl)benzonitrile]
- PDE4 A1 inhibitory effect at 20 nM (PDE4A1A): −
- PDE4 D2 inhibitory effect at 20 nM (PDE4D2): −
- PDE4 B1 inhibitory effect at 20 nM (PDE4B1): −

Structure (SMILES): CCOc1nc([C@@H](CS(C)(=O)=O)n2c(=O)[nH]c3c(C)c(-c4cc(F)ccc4F)cnc32)ccc1OC [Ex. 27, (S)-6-(2,5-difluorophenyl)-3-(1-(6-ethoxy-5-methoxypyridin-2-yl)-2-(methylsulfonyl)ethyl)-7-methyl-1H-imidazo[4,5-b]pyridin-2(3H)-one]
- IC50 (PDE4D2): 3.7 nM

Structure (SMILES): CCOc1nc([C@@H](CS(C)(=O)=O)n2c(=O)[nH]c3c(C)c(-c4ccc(C)cc4C)cnc32)ccc1OC [Ex. 31, (S)-6-(2,4-dimethylphenyl)-3-(1-(6-ethoxy-5-methoxypyridin-2-yl)-2-(methylsulfonyl)ethyl)-7-methyl-1H-imidazo[4,5-b]pyridin-2(3H)-one]
- IC50 (PDE4D2): 4.1 nM

Structure (SMILES): CCOc1nc([C@@H](CS(C)(=O)=O)n2c(=O)[nH]c3c(C)c(-c4ccc(F)cc4C)cnc32)ccc1OC [Ex. 35, (S)-6-(4-fluoro-2-methylphenyl)-3-(1-(6-ethoxy-5-methoxypyridin-2-yl)-2-(methylsulfonyl)ethyl)-7-methyl-1H-imidazo[4,5-b]pyridin-2(3H)-one]
- IC50 (PDE4D2): 3.4 nM

Structure (SMILES): CCOc1nc([C@@H](CS(C)(=O)=O)n2c(=O)[nH]c3cc(-c4ccccc4C)cnc32)ccc1OC [Ex. 79, (S)-3-(1-(6-ethoxy-5-methoxypyridin-2-yl)-2-(methylsulfonyl)ethyl)-6-(o-methylphenyl)-1H-imidazo[4,5-b]pyridin-2(3H)-one]
- IC50 (PDE4D2): 4.7 nM

Structure (SMILES): CCOc1nc([C@@H](CS(C)(=O)=O)n2c(=O)n(C)c3cc(-c4ccccc4C)cnc32)ccc1OC [Ex. 80, (S)-3-(1-(6-ethoxy-5-methoxypyridin-2-yl)-2-(methylsulfonyl)ethyl)-1-methyl-6-(o-methylphenyl)-1H-imidazo[4,5-b]pyridin-2(3H)-one]
- IC50 (PDE4D2): 6.8 nM
